± gives the expanded uncertainty stated by the source.
Conditions: Liquid, Ebulliometric method (Recirculating still)

Structure (SMILES)	vapor or sublimation pressure (394.7 K) [kPa]	vapor or sublimation pressure (434 K) [kPa]	vapor or sublimation pressure (434.1 K) [kPa]	vapor or sublimation pressure (444.3 K) [kPa]	vapor or sublimation pressure (459.3 K) [kPa]	vapor or sublimation pressure (469.3 K) [kPa]	vapor or sublimation pressure (479.4 K) [kPa]
O=Cc1ccco1 [2-furaldehyde]	30 ± 0.2	–	–	–	–	–	–
CC1CCC(=O)O1 (configuration not stated) [γ-valerolactone]	–	29.9 ± 0.2	30 ± 0.2	40.6 ± 0.2	61.7 ± 0.2	80 ± 0.2	102.6 ± 0.3
